Laboratory results published in PubChem BioAssay (NCI).
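Interpolation was linear, between the two tested concentrations surrounding the appropriate level; five concentrations were tested over 48 hours in 96-well plates. TGI: total growth inhibition.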

Legend:
Assay in all cases: NCI anticancer screen, dose series, 48 h
786-0 renal = test system: 786-0 renal
A498 renal = test system: A498 renal
A549 NSCLC = test system: A549 NSCLC
ACHN renal = test system: ACHN renal
BT-549 breast = test system: BT-549 breast
CAKI-1 renal = test system: CAKI-1 renal
CCRF-CEM leukemia = test system: CCRF-CEM leukemia
COLO 205 colon = test system: COLO 205 colon
DU-145 prostate = test system: DU-145 prostate
EKVX NSCLC = test system: EKVX NSCLC
HCC-2998 colon = test system: HCC-2998 colon
HCT-116 colon = test system: HCT-116 colon
HCT-15 colon = test system: HCT-15 colon
HL-60(TB) leukemia = test system: HL-60(TB) leukemia
HOP-62 NSCLC = test system: HOP-62 NSCLC
HS 578T breast = test system: HS 578T breast
HT29 colon = test system: HT29 colon
IGROV1 ovarian = test system: IGROV1 ovarian
K-562 leukemia = test system: K-562 leukemia
KM12 colon = test system: KM12 colon
LOX IMVI melanoma = test system: LOX IMVI melanoma
M14 melanoma = test system: M14 melanoma
MALME-3M melanoma = test system: MALME-3M melanoma
MCF7 breast = test system: MCF7 breast
MDA-MB-231 breast = test system: MDA-MB-231 breast
MDA-MB-435 = test system: MDA-MB-435
MDA-N = test system: MDA-N
MOLT-4 leukemia = test system: MOLT-4 leukemia
NCI-H226 lung = test system: NCI-H226 lung
NCI-H23 lung = test system: NCI-H23 lung
NCI-H460 lung = test system: NCI-H460 lung
NCI-H522 lung = test system: NCI-H522 lung
NCI/ADR-RES ovarian = test system: NCI/ADR-RES ovarian
OVCAR-3 ovarian = test system: OVCAR-3 ovarian
OVCAR-4 ovarian = test system: OVCAR-4 ovarian
OVCAR-5 ovarian = test system: OVCAR-5 ovarian
OVCAR-8 ovarian = test system: OVCAR-8 ovarian
PC-3 prostate = test system: PC-3 prostate
RPMI-8226 leukemia = test system: RPMI-8226 leukemia
SF-268 CNS = test system: SF-268 CNS
SF-295 CNS = test system: SF-295 CNS
SF-539 CNS = test system: SF-539 CNS
SK-MEL-2 melanoma = test system: SK-MEL-2 melanoma
SK-MEL-28 melanoma = test system: SK-MEL-28 melanoma
SK-OV-3 ovarian = test system: SK-OV-3 ovarian
SN12C renal = test system: SN12C renal
SNB-19 CNS = test system: SNB-19 CNS
SNB-75 CNS = test system: SNB-75 CNS
SR leukemia = test system: SR leukemia
SW-620 colon = test system: SW-620 colon
T-47D breast = test system: T-47D breast
TK-10 renal = test system: TK-10 renal
U251 CNS = test system: U251 CNS
UACC-257 melanoma = test system: UACC-257 melanoma
UACC-62 melanoma = test system: UACC-62 melanoma
UO-31 renal = test system: UO-31 renal
HOP-92 NSCLC = test system: HOP-92 NSCLC
SK-MEL-5 melanoma = test system: SK-MEL-5 melanoma

`CCOC(=O)C1(Cc2ccc3c(c2)CCC3)Cc2cc3c(cc2C1)CCC3` was tested, and the TGI (786-0 renal) was > 100 µM, the TGI (A498 renal) was > 100 µM and the TGI (A549 NSCLC) was > 100 µM. For the same compound, the TGI (ACHN renal) was > 100 µM, the TGI (BT-549 breast) was > 100 µM and the TGI (CAKI-1 renal) was > 100 µM. The TGI (CCRF-CEM leukemia) was 35 µM, the TGI (COLO 205 colon) was > 100 µM and the TGI (DU-145 prostate) was > 100 µM. For the same compound, the TGI (EKVX NSCLC) was > 100 µM, the TGI (HCC-2998 colon) was 64.4 µM and the TGI (HCT-116 colon) was > 100 µM. The TGI (HCT-15 colon) was > 100 µM, the TGI (HL-60(TB) leukemia) was > 100 µM and the TGI (HOP-62 NSCLC) was > 100 µM. For the same compound, the TGI (HS 578T breast) was > 100 µM, the TGI (HT29 colon) was 37.9 µM and the TGI (IGROV1 ovarian) was > 100 µM. For the same compound, the TGI (K-562 leukemia) was > 100 µM, the TGI (KM12 colon) was > 100 µM and the TGI (LOX IMVI melanoma) was 82.4 µM. The TGI (M14 melanoma) was 55.9 µM, the TGI (MALME-3M melanoma) was > 100 µM and the TGI (MCF7 breast) was 40.4 µM. The TGI (MDA-MB-231 breast) was > 100 µM, the TGI (MDA-MB-435) was > 100 µM and the TGI (MDA-N) was > 100 µM. For the same compound, the TGI (MOLT-4 leukemia) was 33 µM, the TGI (NCI-H226 lung) was 81.9 µM and the TGI (NCI-H23 lung) was > 100 µM. For the same compound, the TGI (NCI-H460 lung) was 93.5 µM, the TGI (NCI-H522 lung) was 75.5 µM and the TGI (NCI/ADR-RES ovarian) was > 100 µM. For the same compound, the TGI (OVCAR-3 ovarian) was > 100 µM, the TGI (OVCAR-4 ovarian) was 87.9 µM and the TGI (OVCAR-5 ovarian) was > 100 µM. The TGI (OVCAR-8 ovarian) was > 100 µM, the TGI (PC-3 prostate) was > 100 µM and the TGI (RPMI-8226 leukemia) was 49.2 µM. The TGI (SF-268 CNS) was > 100 µM, the TGI (SF-295 CNS) was 70.8 µM and the TGI (SF-539 CNS) was 99.4 µM. For the same compound, the TGI (SK-MEL-2 melanoma) was > 100 µM, the TGI (SK-MEL-28 melanoma) was > 100 µM and the TGI (SK-OV-3 ovarian) was 88.2 µM. For the same compound, the TGI (SN12C renal) was > 100 µM, the TGI (SNB-19 CNS) was > 100 µM and the TGI (SNB-75 CNS) was > 100 µM. The TGI (SR leukemia) was > 100 µM, the TGI (SW-620 colon) was > 100 µM and the TGI (T-47D breast) was 50.7 µM. For the same compound, the TGI (TK-10 renal) was > 100 µM, the TGI (U251 CNS) was > 100 µM and the TGI (UACC-257 melanoma) was 86.2 µM. The TGI (UACC-62 melanoma) was > 100 µM and the TGI (UO-31 renal) was > 100 µM.

`O=Cc1cc2c(cc1-c1c(C=O)ccc3c1OCO3)OCO2` was tested, and the TGI (786-0 renal) was > 10 µM, the TGI (A549 NSCLC) was > 10 µM and the TGI (ACHN renal) was > 10 µM. The TGI (BT-549 breast) was > 10 µM, the TGI (CAKI-1 renal) was > 10 µM and the TGI (CCRF-CEM leukemia) was > 10 µM. For the same compound, the TGI (COLO 205 colon) was > 10 µM, the TGI (DU-145 prostate) was > 10 µM and the TGI (HCC-2998 colon) was > 10 µM. The TGI (HCT-116 colon) was > 10 µM, the TGI (HCT-15 colon) was > 10 µM and the TGI (HL-60(TB) leukemia) was > 10 µM. The TGI (HOP-62 NSCLC) was > 10 µM, the TGI (HOP-92 NSCLC) was > 10 µM and the TGI (HS 578T breast) was > 10 µM. The TGI (HT29 colon) was > 10 µM, the TGI (IGROV1 ovarian) was > 10 µM and the TGI (K-562 leukemia) was > 10 µM. For the same compound, the TGI (KM12 colon) was > 10 µM, the TGI (LOX IMVI melanoma) was > 10 µM and the TGI (M14 melanoma) was > 10 µM. The TGI (MALME-3M melanoma) was > 10 µM, the TGI (MCF7 breast) was > 10 µM and the TGI (MDA-MB-231 breast) was > 10 µM. The TGI (MDA-MB-435) was > 10 µM, the TGI (MDA-N) was > 10 µM and the TGI (MOLT-4 leukemia) was > 10 µM. For the same compound, the TGI (NCI-H23 lung) was > 10 µM, the TGI (NCI/ADR-RES ovarian) was > 10 µM and the TGI (OVCAR-3 ovarian) was > 10 µM. The TGI (OVCAR-4 ovarian) was > 10 µM, the TGI (OVCAR-8 ovarian) was > 10 µM and the TGI (PC-3 prostate) was > 10 µM. For the same compound, the TGI (RPMI-8226 leukemia) was > 10 µM, the TGI (SF-268 CNS) was > 10 µM and the TGI (SF-295 CNS) was > 10 µM. For the same compound, the TGI (SF-539 CNS) was > 10 µM, the TGI (SK-MEL-28 melanoma) was > 10 µM and the TGI (SK-MEL-5 melanoma) was > 10 µM. The TGI (SK-OV-3 ovarian) was > 10 µM, the TGI (SN12C renal) was > 10 µM and the TGI (SNB-19 CNS) was > 10 µM. For the same compound, the TGI (SNB-75 CNS) was > 10 µM, the TGI (SR leukemia) was > 10 µM and the TGI (SW-620 colon) was > 10 µM. The TGI (T-47D breast) was > 10 µM, the TGI (TK-10 renal) was > 10 µM and the TGI (U251 CNS) was > 10 µM. For the same compound, the TGI (UACC-257 melanoma) was > 10 µM and the TGI (UACC-62 melanoma) was > 10 µM.
